The results in this text go back to ChEMBL document CHEMBL3608258, “Anti-influenza activities of polyphenols from the medicinal mushroom Phellinus baumii” (Bioorg Med Chem Lett, 2015).

Data set [1] can be described thus: Therapeutic index, ratio of CC50 for MDCK cells to IC50 for Influenza A virus H1N1. The format is cell-based. The conditions noted are these: dog, read-out: Ratio CC50/IC50.
Data set [2] is described as follows: Cytotoxicity against MDCK cells by SRB assay. The format is cell-based, Canis lupus familiaris. The conditions noted are these: dog.
Data set [3] is described as follows: Retention time of the compound. It is filed as physicochemical.
For data set [4], the target named is T1, Neuraminidase (Influenza A virus, UniProt B4URF0). Description: (§1) Inhibition of recombinant Influenza A virus H1N1 neuraminidase.
The target in data set [5] is Neuraminidase (Influenza A virus) (UniProt B4URF0). The data set is described as §1.
The test system of data set [6] is Influenza A virus. Kind of data set: Antiviral activity against Influenza A virus H1N1 infected in MDCK cells assessed as inhibition of virus-induced cytopathic effect by SRB assay. It is filed as functional, organism-based. (Protection from cytopathic effect is a common read-out in antiviral testing.)
In data set [7] the test system is Influenza A virus. Description: Antiviral activity against Influenza A virus H1N1 infected in MDCK cells assessed as inhibition of virus-induced change in cell morphology at 10 ug/ml after 2 days by microscopic analysis. The format is functional, organism-based.
Data set [8] deals with T1, Neuraminidase. Kind of data set: Inhibition of recombinant Influenza A virus H3N2 neuraminidase.
In data set [9] the target is Neuraminidase (Influenza A virus) (UniProt B4URF0). Kind of data set: Ratio of hispidin IC50 to compound IC50 for recombinant Influenza A virus H1N1 neuraminidase.
The target in data set [10] is T1, Neuraminidase. Kind of data set: (§2) Inhibition of recombinant Influenza A virus H5N1 neuraminidase.
Data set [11] addresses Neuraminidase (Influenza A virus) (UniProt B4URF0). The description is as §2.
Data set [12] has the same target. Kind of data set: Noncompetitive inhibition of recombinant Influenza A virus H1N1 neuraminidase using MU-NANA as substrate.
The subject of data set [13] is Influenza A virus. Kind of data set: Ratio of zanamivir IC50 to compound IC50 for Influenza A virus H1N1 infected in MDCK cells assessed as inhibition of virus-induced cytopathic effect by SRB assay. The format is functional.

Activity calls are given as the source filed them. The calls are words filed in the database; no cut-off is given here. Bounds are passed on as bounds.

Consider `CC1=CC(=O)[C@H](c2c(O)cc(/C=C/c3ccc(O)c(O)c3)oc2=O)[C@@H](c2ccc(O)c(O)c2)O1` [DAVALLIALACTONE], for which, in data set [1], the selectivity ratio was found to be 2.3. Moreover, the CC50 (as a rule, the concentration that lowers cell viability or growth by half) in data set [2] was determined as 680 µM. Also, the Retention_time in data set [3] is listed as 9 min. Moreover, the IC50 (in general, the concentration that gives 50% inhibition) came out at 14.2 µM on Neuraminidase [4], 42.8 µM with Influenza A virus [6], 21.1 µM at Neuraminidase [8] and 21.8 µM at Neuraminidase [10]. Besides, the inhibition entry in data set [5] and in data set [11] was “Dose-dependent effect” each time. In addition, the inhibition result in the data set with Influenza A virus [7] is “Active”. In [9], the Ratio IC50 stood at 3.6. The Kiuc in data set [12] stood at 27.6 µM.
As for `O=c1cc(O)cc([C@H]2c3c(cc(/C=C/c4ccc(O)c(O)c4)oc3=O)O[C@@H]2c2ccc(O)c(O)c2)o1` [HYPHOLOMINE B], in [1], the selectivity ratio is > 1.4. In data set [2], the CC50 was > 100 µM. In [3], this compound came in with a Retention_time of 14.5 min. Besides, the IC50 on Neuraminidase [4] is 22.9 µM; in the data set with Influenza A virus [6], 72.8 µM; at Neuraminidase [8], 14.6 µM; on Neuraminidase [10], 12.3 µM. In addition, the inhibition entry in [5] and in data set [11] was “Dose-dependent effect” each time. The inhibition result in the data set with Influenza A virus [7] was “Active”. The Ratio IC50 in data set [9] stood at 2.2. For the same compound, in data set [12], the Kiuc turned out to be 20.9 µM.
On to `CC(=O)N[C@H]1[C@H]([C@H](O)[C@H](O)CO)OC(C(=O)O)=C[C@@H]1NC(=N)N` [ZANAMIVIR], for which, in the data set with Influenza A virus [6], the IC50 is 0.0647 µM. Further, the inhibition entry in the data set on Influenza A virus [7] is “Active”.
With `O=c1cc(O)cc(/C=C/c2ccc(O)c(O)c2)o1` [HISPIDIN], the selectivity ratio in data set [1] is > 1.7. The CC50 in [2] was > 100 µM. In data set [3], this compound registered a Retention_time of 11.6 min. The IC50 on Neuraminidase [4] came to 50.9 µM; with Influenza A virus [6], 57.9 µM; at Neuraminidase [8], 45.2 µM; at Neuraminidase [10] it was 16.9 µM. Also, the inhibition entry in data set [5] and in [11] was “Dose-dependent effect” in each case. In addition, the inhibition entry in the data set with Influenza A virus [7] was “Active”. Moreover, the Kiuc in data set [12] was 43 µM.
For `O=c1oc2cc(/C=C/c3ccc(O)c(O)c3)oc(=O)c2c2cc(O)c(O)cc12` [PHELLIGRIDIN D], the selectivity ratio in data set [1] is > 4.1. Moreover, the CC50 in [2] was > 100 µM. In data set [3], this compound showed a Retention_time of 18.8 min. In addition, the IC50 at Neuraminidase [4] stood at 8.8 µM; in the data set on Influenza A virus [6], 24.6 µM; at Neuraminidase [8], 10.3 µM; on Neuraminidase [10] it was 10.9 µM. Also, the inhibition entry in data set [5] and in data set [11] was “Dose-dependent effect” in each case. For the same compound, the inhibition entry in the data set with Influenza A virus [7] was “Active”. Moreover, the Ratio IC50 in data set [9] came out at 5.8. Also, the Kiuc in [12] amounted to 15.9 µM.
`CC1=CC(=O)C2(O1)c1c(cc(/C=C/c3ccc(O)c(O)c3)oc1=O)OC2c1ccc(O)c(O)c1` (configuration not stated) [INOSCAVIN A]: the selectivity ratio in data set [1] worked out at 4.4. The same compound came in with a CC50 in data set [2] of 433 µM. The Retention_time in [3] was determined as 14.9 min. The IC50 at Neuraminidase [4] turned out to be 20 µM; with Influenza A virus [6], 22.6 µM; at Neuraminidase [8], 18.5 µM; on Neuraminidase [10] it was 18.5 µM. Also, the inhibition entry in [5] and in [11] was “Dose-dependent effect” each time. Further, the inhibition entry in the data set on Influenza A virus [7] was “Active”. The Ratio IC50 in data set [9] was determined as 2.5; with Influenza A virus [13] it was 2.9. For the same compound, the Kiuc in data set [12] stood at 24.5 µM.
